Consider 53 compounds from patent publication US20240376056A1, “PHENYL ACETAMIDE BASED IL-17A MODULATORS AND USES THEREOF” (DiCE Alpha, Inc., priority 2021, published 2024).

Usually IC50 stands for the concentration at which inhibition is half-maximal.

The assay addresses T1, IL-17A/A (Homo sapiens, UniProt Q16552).
T1 construct: purchased Genscript Z03228
T1 sequence (Q16552 24-155): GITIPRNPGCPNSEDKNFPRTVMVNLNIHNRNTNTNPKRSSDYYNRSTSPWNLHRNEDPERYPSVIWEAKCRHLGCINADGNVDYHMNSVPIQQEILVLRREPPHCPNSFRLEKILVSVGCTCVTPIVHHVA
Description: HEK-Blue IL-17A/A inhibition assay (SEAP reporter). It counts as cell-based. The settings on record: HEK-Blue cells (HEK 293 expressing IL-17RA, IL-17RC, Act1); IL-17A/A stimulation; 20 hours; SEAP read at A630; 4-parameter fit. The essentials:
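IC50 from a 4-parameter fit of SEAP signal (Quanti-Blue, A630) after 20 h co-incubation of compound and IL-17A/A. Reporter line: HEK 293 expressing IL-17RA, IL-17RC and Act1 with NFκB-SEAP; compound top final 10, 1 or 0.3 uM, DMSO 0.1% final.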

Take `CC(C)n1nccc1C(=O)N[C@H](C(=O)Nc1ccc(C(CO)C(=O)NCC(F)(F)F)cc1F)C(C1CC1)C1CC1` (some centres unmarked) [Compound 193]: the IC50 is more than 1 µM.

In the case of `CCOc1cc(NC(=O)[C@@H](NC(=O)c2ccnn2C(C)C)C(C2CC2)C2CC2)c(F)cc1C(C)C(=O)NCC(F)(F)F` (some centres unmarked) [Compound 194], the IC50 lay in the range of 0.1 to 1 µM.

Regarding `CCOc1cc(NC(=O)[C@@H](NC(=O)c2ccnn2C(C)C)C(C2CC2)C2CC2)c(F)cc1C(C)C(=O)N(C)CC(F)(F)F` (some centres unmarked) [Compound 195], the IC50 is less than 0.1 µM.

For `CNc1cc(NC(=O)[C@@H](NC(=O)c2ccnn2C(C)C)C(C2CC2)C2CC2)c(F)cc1C(C)C(=O)NCC(F)(F)F` (some centres unmarked) [Compound 196], the 50% inhibitory concentration (IC50) was more than 1 µM.

Consider `Cc1cc(NC(=O)[C@@H](NC(=O)c2nonc2C)C2CCC(F)(F)CC2)c(F)cc1C(C)C(=O)NCC(F)(F)F` (some centres unmarked) [Compound 197], for which the IC50 was more than 1 µM.

For the compound `Cc1cc(NC(=O)[C@@H](NC(=O)c2nonc2C)C2CCC(F)(F)CC2)c(F)cc1C(C)C(=O)N(C)CC(F)(F)F` (some centres unmarked) [Compound 198], the IC50 was in the range of 0.1 to 1 µM.

Consider `CCn1nccc1C(=O)N[C@H](C(=O)Nc1cc(C)c(C(C)C(=O)NCC(F)(F)F)cc1F)[C@H]1CC[C@H](C)CC1` (some centres unmarked) [Compound 201], for which the IC50 was more than 1 µM.

As to `CCn1nccc1C(=O)N[C@H](C(=O)Nc1cc(C)c(C(C)C(=O)N(C)CC(F)(F)F)cc1F)[C@H]1CC[C@H](C)CC1` (some centres unmarked) [Compound 202], the IC50 is less than 0.1 µM.

On to `CC[C@@H](c1ccc(F)cc1)[C@H](NC(=O)c1ccnn1CC)C(=O)Nc1cc(C)c(C(C)C(=O)N(C)CC(F)(F)F)cc1F` (some centres unmarked) [Compound 203], for which the IC50 was less than 0.1 µM.

`CC(C(=O)N1CC(C#N)CCC1C(F)(F)F)c1ccc(NC(=O)[C@@H](NC(=O)c2ccnn2C(C)C)C(C2CC2)C2CC2)c(F)c1` (some centres unmarked) [Compound 204]: the IC50 is 0.1 to 1 µM.

As to `CCc1nonc1C(=O)N[C@H](C(=O)Nc1cc(C)c(C(C)C(=O)N(C)CC(F)(F)F)cc1F)C(C1CC1)C1CC1` (some centres unmarked) [Compound 205], the IC50 is less than 0.1 µM.

In the case of `CCc1nonc1C(=O)N[C@H](C(=O)Nc1cc(C)c(C(C)C(=O)NCC(F)(F)F)cc1F)C(C1CC1)C1CC1` (some centres unmarked) [Compound 206], the half-inhibitory concentration (IC50) lay in the range of 0.1 to 1 µM.

In the case of `Cc1cc(NC(=O)[C@@H](NC(=O)c2ccnn2C(C)C)C2CCC(F)(F)CC2)c(F)cc1C(C)C(=O)N(C)CC(F)(F)F` (some centres unmarked) [Compound 207], the IC50 was less than 0.1 µM.

As to `Cc1cc(NC(=O)[C@@H](NC(=O)c2ccnn2C(C)C)C(C2CC2)C2CC2)c(F)cc1C(C)C(=O)N(C)CC(F)(F)F` (some centres unmarked) [Compound 208], the 50% inhibitory concentration (IC50) is less than 0.1 µM.

Regarding `Cc1cc(NC(=O)[C@@H](NC(=O)c2ccnn2C(C)C)C(C2CC2)C2CC2)c(F)cc1C(C)C(=O)NC(C1CCOC1)C(F)(F)F` (some centres unmarked) [Compound 209], the IC50 was less than 0.1 µM.

For the compound `Cc1cc(NC(=O)[C@@H](NC(=O)c2nonc2C)C(C2CC2)C2CC2)c(F)cc1C(C)C(=O)NCC(F)(F)F` (some centres unmarked) [Compound 210], the IC50 lay within 0.1 to 1 µM.

With `Cc1cc(NC(=O)[C@@H](NC(=O)c2nonc2C)C(C2CC2)C2CC2)c(F)cc1C(C)C(=O)N(C)CC(F)(F)F` (some centres unmarked) [Compound 211], the IC50 is less than 0.1 µM.

As to `CC(C(=O)NCC(F)(F)F)c1cc(F)c(NC(=O)[C@@H](NC(=O)c2ccnn2C(C)C)C(C2CC2)C2CC2)cc1N(C)C` (some centres unmarked) [Compound 214], the half-maximal inhibitory concentration (IC50) is more than 1 µM.

As to `Cc1cc(NC(=O)[C@@H](NC(=O)c2ccnn2C)C2CCC(F)(F)CC2)c(F)cc1C(C)C(=O)NCC(F)(F)F` (some centres unmarked) [Compound 215], the IC50 was more than 1 µM.

For the compound `Cc1cc(NC(=O)[C@@H](NC(=O)c2ccnn2C)C2CCC(F)(F)CC2)c(F)cc1C(C)C(=O)N(C)CC(F)(F)F` (some centres unmarked) [Compound 216], the IC50 lay in the range of 0.1 to 1 µM.

As for `CCn1nccc1C(=O)N[C@H](C(=O)Nc1cc(C)c(C(C)C(=O)NCC(F)(F)F)cc1F)C1CCC(F)(F)CC1` (some centres unmarked) [Compound 217], the concentration for half-maximal inhibition (IC50) was more than 1 µM.

Turning to `CCn1nccc1C(=O)N[C@H](C(=O)Nc1cc(C)c(C(C)C(=O)N(C)CC(F)(F)F)cc1F)C1CCC(F)(F)CC1` (some centres unmarked) [Compound 218], the half-inhibitory concentration (IC50) was less than 0.1 µM.

In the case of `CCn1nccc1C(=O)N[C@H](C(=O)Nc1ccc(C(C)C(=O)N2CCC(C(F)(F)F)C2)cc1F)C(C1CC1)C1CC1` (some centres unmarked) [Compound 221], the IC50 was in the range of 0.1 to 1 µM.

As to `Cc1cc(NC(=O)[C@@H](NC(=O)c2ccnn2C)C(C2CC2)C2CC2)c(F)cc1C(C)C(=O)NCC(F)(F)F` (some centres unmarked) [Compound 222], the IC50 was more than 1 µM.

Consider `Cc1cc(NC(=O)[C@@H](NC(=O)c2ccnn2C)C(C2CC2)C2CC2)c(F)cc1C(C)C(=O)N(C)CC(F)(F)F` (some centres unmarked) [Compound 223], for which the IC50 is less than 0.1 µM.

Regarding `CCc1nonc1C(=O)N[C@H](C(=O)Nc1cc(C)c(C(C)C(=O)NCC(F)(F)F)cc1F)C1CCC(F)(F)CC1` (some centres unmarked) [Compound 224], the IC50 was in the range of 0.1 to 1 µM.

For `CCc1nonc1C(=O)N[C@H](C(=O)Nc1cc(C)c(C(C)C(=O)N(C)CC(F)(F)F)cc1F)C1CCC(F)(F)CC1` (some centres unmarked) [Compound 225], the IC50 lay in the range of 0.1 to 1 µM.

For `CNCc1cc(NC(=O)[C@@H](NC(=O)c2ccnn2C(C)C)C(C2CC2)C2CC2)c(F)cc1C(C)C(=O)NCC(F)(F)F` (some centres unmarked) [Compound 226], the IC50 lay in the range of 0.1 to 1 µM.

With `CC(C(=O)N(C)CC(F)(F)F)c1cc(F)c(NC(=O)[C@@H](NC(=O)c2ccnn2C(C)C)C(C2CC2)C2CC2)cc1CNCCO` (some centres unmarked) [Compound 227], the half-maximal inhibitory concentration (IC50) is 0.1 to 1 µM.

For `CC(C(=O)N1CCC(C(N)=O)C1C(F)(F)F)c1cc(F)c(NC(=O)[C@@H](NC(=O)c2ccnn2C(C)C)C(C2CC2)C2CC2)cc1C(F)(F)F` (some centres unmarked) [Compound 228], the IC50 was in the range of 0.1 to 1 µM.

Regarding `CC(C)c1nocc1C(=O)N[C@H](C(=O)Nc1cc(C(F)(F)F)c(C(C)C(=O)NCC(F)(F)F)cc1F)C(C1CC1)C1CC1` (some centres unmarked) [Compound 229], the IC50 was more than 1 µM.

For the compound `CC(C(=O)NCC(F)(F)F)c1cc(F)c(NC(=O)[C@@H](NC(=O)c2ccnn2C(C)C)C(C2CC2)C2CC2)cc1N1CCOCC1` (some centres unmarked) [Compound 232], the IC50 was more than 1 µM.

Regarding `CC(C(=O)N(C)CC(F)(F)F)c1cc(F)c(NC(=O)[C@@H](NC(=O)c2ccnn2C(C)C)C(C2CC2)C2CC2)cc1N(C)C` (some centres unmarked) [Compound 233], the 50% inhibitory concentration (IC50) was more than 1 µM.

Consider `CC(C(=O)NCC(F)(F)F)c1cc(F)c(NC(=O)[C@@H](NC(=O)c2ccnn2C(C)C)C(C2CC2)C2CC2)cc1N(C)C` (some centres unmarked) [Compound 234], for which the IC50 is more than 1 µM.

For `CC(C(=O)N1CCCN1)c1ccc(NC(=O)[C@@H](NC(=O)c2ccnn2C(C)C)C(C2CC2)C2CC2)c(F)c1` (some centres unmarked) [Compound 235], the half-inhibitory concentration (IC50) was more than 1 µM.

In the case of `CCn1nccc1C(=O)N[C@H](C(=O)Nc1cc(C)c(C(C)C(=O)NCC(F)(F)F)cc1F)C(C1CC1)C1CC1` (some centres unmarked) [Compound 236], the IC50 was less than 0.1 µM.

For the compound `Cc1c(F)c(NC(=O)[C@@H](NC(=O)c2conc2C2CC2)C(C2CC2)C2CC2)cc(C(F)(F)F)c1C(C)C(=O)NCC(F)(F)F` (some centres unmarked) [Compound 237], the IC50 is more than 1 µM.

As to `CC(C)c1nonc1C(=O)N[C@H](C(=O)Nc1cc(C(F)(F)F)c(C(C)C(=O)NCC(F)(F)F)cc1F)C(C1CC1)C1CC1` (some centres unmarked) [Compound 238], the 50% inhibitory concentration (IC50) is 0.1 to 1 µM.

As to `CCn1nccc1C(=O)N[C@H](C(=O)Nc1cc(C(F)(F)F)c(C(C)C(=O)N2CC(F)(F)CC2C(F)(F)F)cc1F)C(C1CC1)C1CC1` (some centres unmarked) [Compound 239], the IC50 is 0.1 to 1 µM.

For `CCn1nccc1C(=O)N[C@H](C(=O)Nc1cc(C(F)(F)F)c(C(C)C(=O)N2CC(F)(F)C(F)(F)C2)cc1F)C(C1CC1)C1CC1` (some centres unmarked) [Compound 242], the IC50 was 0.1 to 1 µM.

`CCN(C)C(=O)C(C)c1cc(F)c(NC(=O)[C@@H](NC(=O)c2ccnn2CC)C(C2CC2)C2CC2)cc1C` (some centres unmarked) [Compound 243]: the IC50 was 0.1 to 1 µM.

`CCNC(=O)C(C)c1cc(F)c(NC(=O)[C@@H](NC(=O)c2ccnn2CC)C(C2CC2)C2CC2)cc1C` (some centres unmarked) [Compound 244]: the IC50 is more than 1 µM.

For the compound `CCn1nccc1C(=O)N[C@H](C(=O)Nc1cc(OC(F)(F)F)c(C(C)C(=O)N(C)CC(F)(F)F)cc1F)C(C1CC1)C1CC1` (some centres unmarked) [Compound 245], the IC50 lay in the range of 0.1 to 1 µM.

As for `CC(C(=O)N(C)CC(F)(F)F)c1cc(F)c(NC(=O)[C@@H](NC(=O)c2ccnn2C(C)C)C(C2CC2)C2CC2)cc1OC(F)(F)F` (some centres unmarked) [Compound 246], the IC50 was more than 1 µM.

Turning to `CC(C(=O)NCC(F)(F)F)c1cc(F)c(NC(=O)[C@@H](NC(=O)c2ccnn2C)C(C2CC2)C2CC2)cc1OC(F)(F)F` (some centres unmarked) [Compound 247], the IC50 was more than 1 µM.

Turning to `CCn1nccc1C(=O)N[C@H](C(=O)Nc1cc(OC(F)(F)F)c(C(C)C(=O)NCC(F)(F)F)cc1F)C(C1CC1)C1CC1` (some centres unmarked) [Compound 248], the IC50 was more than 1 µM.

On to `COC(=O)Nc1cc(NC(=O)[C@@H](NC(=O)c2ccnn2C(C)C)C(C2CC2)C2CC2)c(F)cc1C(C)C(=O)NCC(F)(F)F` (some centres unmarked) [Compound 249], for which the half-inhibitory concentration (IC50) fell in the range of 0.1 to 1 µM.

In the case of `CC(C(=O)N1CCC(C(N)=O)C1C(F)(F)F)c1cc(F)c(NC(=O)[C@@H](NC(=O)c2ccnn2C(C)C)C(C2CC2)C2CC2)cc1C(F)(F)F` (some centres unmarked) [Compound 250], the IC50 was less than 0.1 µM.

Consider `Cc1cc(NC(=O)[C@@H](NC(=O)c2nonc2C2CC2)C(C2CC2)C2CC2)c(F)cc1C(C)C(=O)NCC(F)(F)F` (some centres unmarked) [Compound 251], for which the IC50 is less than 0.1 µM.

Consider `CCn1nccc1C(=O)N[C@H](C(=O)Nc1cc(OC(F)(F)F)c(C(C)C(=O)N(C)CC(F)(F)F)cc1F)C(C1CC1)C1CC1` (some centres unmarked) [Compound 253], for which the half-inhibitory concentration (IC50) was less than 0.1 µM.

`CC(C(=O)NCC(F)(F)F)c1cc(F)c(NC(=O)[C@@H](NC(=O)c2ccnn2C(C)C)C(C2CC2)C2CC2)cc1Nc1ccccn1` (some centres unmarked) [Compound 254]: the IC50 was more than 1 µM.

With `CCOC(=O)Nc1cc(NC(=O)[C@@H](NC(=O)c2ccnn2C(C)C)C(C2CC2)C2CC2)c(F)cc1C(C)C(=O)NCC(F)(F)F` (some centres unmarked) [Compound 255], the IC50 was more than 1 µM.

On to `CC(C(=O)NCC(F)(F)F)c1cc(F)c(NC(=O)[C@@H](NC(=O)c2ccnn2C(C)C)C(C2CC2)C2CC2)cc1NC(=O)OCCN` (some centres unmarked) [Compound 256], for which the 50% inhibitory concentration (IC50) lay in the range of 0.1 to 1 µM.
